#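 Five concentrations, 48 hours, 96-well plates. GI50: concentration for 50% inhibition of growth.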 Calls of active or inactive are those of the source. Rule as the data show it: active = GI50 up to about 1.1 µM and inactive = higher.
# Columns and labels:
# Experiment in all cases: growth of human tumour cells (NCI), 48 h
# [1] = tested on: A549
# [2] = tested on: ACHN
# [3] = tested on: BT-549
# [4] = tested on: COLO 205
# [5] = tested on: HCC 2998
# [6] = tested on: HOP-92
# [7] = tested on: HT-29
# [8] = tested on: KM12
# [9] = tested on: MDA-MB-435
# [10] = tested on: MOLT-4
# [11] = tested on: NCI-H460
# [12] = tested on: NCI-H522
# [13] = tested on: NCI/ADR-RES
# [14] = tested on: SF-268
# [15] = tested on: SF-539
# [16] = tested on: SK-MEL-28
# [17] = tested on: SK-OV-3
# [18] = tested on: UACC-257
# [19] = tested on: PC-3
Compound,GI50 [1],GI50 [2],GI50 [3],GI50 [4],GI50 [5],GI50 [6],GI50 [7],GI50 [8],GI50 [9],GI50 [10],GI50 [11],GI50 [12],GI50 [13],GI50 [14],GI50 [15],GI50 [16],GI50 [17],GI50 [18],GI50 [19]
Clc1sc(Cl)c2c1[C@H](Cl)C[C@@H]2Cl,21.2 µM (inactive),33.2 µM (inactive),26.5 µM (inactive),29.2 µM (inactive),15.2 µM (inactive),6.58 µM (inactive),32.7 µM (inactive),25.6 µM (inactive),18.2 µM (inactive),50.2 µM (inactive),49.2 µM (inactive),1.07 µM (active),15.9 µM (inactive),17.8 µM (inactive),18.7 µM (inactive),17.5 µM (inactive),54 µM (inactive),24.3 µM (inactive),–
CCOC(=O)c1c(NC(=S)Nc2ccc(C)cc2)sc2c1CCN(C)C2,> 100 µM (inactive),> 100 µM (inactive),> 100 µM (inactive),> 100 µM (inactive),–,–,> 100 µM (inactive),81.7 µM (inactive),–,> 100 µM (inactive),> 100 µM (inactive),–,> 100 µM (inactive),> 100 µM (inactive),> 100 µM (inactive),–,–,> 100 µM (inactive),> 100 µM (inactive)
COc1ccc2c3c([nH]c2c1)CCN(CCCC(=O)c1ccc(F)cc1)C3,17.1 µM (inactive),17.1 µM (inactive),–,12.8 µM (inactive),5.53 µM (inactive),–,4.91 µM (inactive),19.7 µM (inactive),17.1 µM (inactive),16.7 µM (inactive),19.4 µM (inactive),23.3 µM (inactive),18.6 µM (inactive),16.8 µM (inactive),9.89 µM (inactive),15.3 µM (inactive),19.4 µM (inactive),17.6 µM (inactive),12.6 µM (inactive)
O=C1c2c(ccc3c2CCCC3)CC1Cc1ccc2c(c1)CCCC2 (stereo not given),41.5 µM (inactive),80.4 µM (inactive),> 100 µM (inactive),30.8 µM (inactive),34.6 µM (inactive),22 µM (inactive),17.1 µM (inactive),59.2 µM (inactive),34 µM (inactive),35 µM (inactive),38.5 µM (inactive),–,–,> 100 µM (inactive),> 100 µM (inactive),> 100 µM (inactive),> 100 µM (inactive),28.3 µM (inactive),45.5 µM (inactive)
CC1(C)CC2(C)CC1CC2O (stereo not given),> 100 µM (inactive),–,> 100 µM (inactive),> 100 µM (inactive),> 100 µM (inactive),–,> 100 µM (inactive),> 100 µM (inactive),> 100 µM (inactive),> 100 µM (inactive),–,–,> 100 µM (inactive),> 100 µM (inactive),> 100 µM (inactive),> 100 µM (inactive),> 100 µM (inactive),> 100 µM (inactive),> 100 µM (inactive)

# From ChEMBL document CHEMBL1201862, “PubChem BioAssay data set” (2004)
